Data from ChEMBL document CHEMBL1154572, “Stephanotic acid, a novel cyclic pentapeptide from the stem of Stephanotis floribunda” (2000).

Experiments:
[1] = tested on: L1210; assay: Cytotoxicity against mouse L1210 cells; type: functional; details: L1210, read-out: ED50
[2] = tested on: KB; assay: Cytotoxicity against human KB cells; type: functional; details: read-out: ED50

## CC[C@H](C)[C@@H]1NC(=O)[C@@H](NC(=O)[C@@H]2CCC(=O)N2)[C@@H](C(C)C)c2ccc3c(c[nH]c3c2)C[C@@H](C(=O)OC)NC(=O)[C@H](C(C)C)NC1=O [METHYL STEPHANATE]
[1]
  EC50: > 50 µg/mL
[2]
  EC50: > 50 µg/mL

## CC[C@H](C)[C@@H]1NC(=O)[C@@H](NC(=O)[C@@H]2CCC(=O)N2)[C@@H](C(C)C)c2ccc3c(c[nH]c3c2)C[C@@H](C(=O)O)NC(=O)[C@H](C(C)C)NC1=O [STEPHANOTIC ACID]
[1]
  EC50: > 50 µg/mL
[2]
  EC50: > 50 µg/mL
